system: enzyme from pig adipose tissue (synthesis of triglycerides); assay: Inhibition of triglyceride synthesis by enzyme preparation from pig adipose tissue (14C-glycerol-3-phosphate incorporation); assay type: biochemical; conditions: test compound 1000 micrograms per milliliter, 5% DMSO, 8 minutes at 37° C; compared to controls without test compound; average of two animals
Procedure: An enzyme was prepared by homogenizing one gram of slices from pig adipose tissue, each slice being approximately 0.3 mm thick, in one-milliliter portions of a liquid medium (Liquid A). The homogenate then was centrifuged (10.000 g×15 minutes), and the supernatant phase (the enzyme) was poured through cheesecloth to remove fat that had risen to the top of the centrifuge tubes.
Liquid A had the following composition (in water):
0.15 M potassium chloride, 1 mM ethylenediaminetetracetic acid, […] Hepes (N-2-hydroxyethylpiperazine-N'-2-ethanesulfonic acid), 1 mM DTT (dithiothreitol), pH=7.0.
A solution of the test compound (Liquid B) was prepared: 10 milligrams of test compound plus 0.5 milliliter dimethylsulfoxide (DMSO) plus 1.83 milliliters of glass-distilled water.
A premix (Liquid C) was freshly prepared before each test, from the following components:
0.163 milliliter of Liquid B (containing the test compound, or for comparison omitting the test compound) was mixed with 0.1 milliliter of Liquid C, 0.05 milliliter of a solution of L-[U-^14 C] glycerol-3-phosphate (containing 5 microcuries of ^14 C per milliliter), 0.01 milliliter of 0.8 M potassium phosphate (pH=7.4), 0.07 milliliter of 0.2 M glycerol-3-phosphate (pH=7.4) and 0.047 milliliter of water. 0.25 milliliter of enzyme then was added. The final concentrations of DMSO and test compound were 5% and 1000 micrograms per milliliter, respectively. The mixture was incubated for 8 minutes at 37° C. A blank control without enzyme was incubated under the same conditions. Then, 3 milliliters of a 1:2 (v/v) mixture of chloroform and methanol was added and thoroughly mixed to terminate the reaction. After 10 minutes, 2 milliliters of chloroform and 1 milliliter of 0.1 N hydrochloric acid were added to the stirred mixture. The mixture was then centrifuged (275 g) for 5 minutes at room temperature. The top layer of the sample was siphoned off. Two milliliters of 0.1 N hydrochloric acid in 50% methanol/water was added, the mixture was centrifuged (275 g) and the top layer was carefully siphoned off. The resulting liquid (the chloroform phase) was transferred to a liquid scintillation vial and air dried. Ten milliliters of a 2:1 (v/v) mixture of toluene and Triton X-100 containing 0.27% New England Nuclear Omnifluor was added, and the radioactivity was determined in a liquid scintillation counter.
Three replicates (samples of enzyme) were conducted per experiment (per animal). The results were reported as the average of the values obtained from the adipose tissue from two experiments (i.e., two different animals).
The percent inhibition by the test compound compared to the controls (no test compound) was determined.

SMILES | Percent Inhibition
CC(NCCC(c1ccccc1)c1ccsc1)C(O)c1ccccc1.Cl (stereo not drawn) [Compound 1, alpha-(1-(3-phenyl-3-(3-thienyl)propylamino)ethyl)-benzenemethanol, hydrochloride] | 94
Cl.OC(CNCC=C(c1ccsc1)c1ccsc1)c1cccc(C(F)(F)F)c1 (stereo not drawn) [Compound 2, alpha-((3,3-di-3-thienyl-2-propenylamino)methyl)-3-(trifluoromethyl)benzenemethanol, hydrochloride] | 101
CC(NCC=C(c1ccsc1)c1ccsc1)C(O)c1ccccc1.Cl (stereo not drawn) [Compound 3, alpha-(1-(3,3-di-3-thienyl-2-propenylamino)ethyl)-benzenemethanol, hydrochloride] | 97
Cl.OC(CNCCC(O)(c1ccccc1)c1ccsc1)c1ccc(Cl)cc1 (stereo not drawn) [Compound 4, alpha-(2-(2-(4-chlorophenyl)-2-hydroxyethylamino)-ethyl)-alpha-phenyl-3-thiophenemethanol, hydrochloride] | 94
CC(C)c1ccc(C(=CCNC(C)C(O)c2ccccc2)c2ccsc2)cc1.Cl (stereo not drawn) [Compound 5, alpha-(1-(3-(4-(1-methylethyl)-phenyl)-3-(3-thienyl)-2-propenylamino)ethyl)benzenemethanol, hydrochloride] | 96

Source: patent US4278687A, “Inhibition of biosynthesis of triglycerides by certain N-β-phenethyl-N-thienylalkylamines” (Shell Oil Company, priority 1980, dated 1981)
